Laboratory results published in PMC4834642, “Orthogonal ring-closing alkyne and olefin metathesis for the synthesis of small GTPase-targeting bicyclic peptides” (Nature Communications, 2016).
Values belong to the compound of their own block, whether it stands above or below them. Bridge positions count the residues as written; N and C are the ends. Square brackets hold non-standard residues; d marks the D form. Peptide text beside a SMILES is read from it. * marks the point of attachment. FITC = O=C1OC2(c3ccc(O)cc3Oc3cc(O)ccc32)c2ccc(NC(=S)*)cc21; S5 = C=CCCC[C@](C)(N)C(=O)O; AEEA = NCCOCCOCC(=O)O

Experiments:
Rab8a6-176(GppNHp) = target: T1, Rab8a6-176(GppNHp) (Homo sapiens, UniProt P61006); test: Fluorescence polarization (FP) binding assay of fluorescein-labelled peptides; conditions: for Rel. Kd (Kd [Peptide]/Kd [StRIP3]) / Kd: FP, fluorescein-PEG labelled peptide 66 nM, 4 h room temperature, 25 mM HEPES pH 7.5; for Rel. Kd (Kd [Peptide]/Kd [StRIP3]): Kd values are single point measurements (n = 1); for Kd: average of triplicate measurements, errors 1σ
T1 construct: Expression and purification of Rab8a6-176 was performed analog to full-length Rab8a; made in house
T1 sequence (P61006 6-176): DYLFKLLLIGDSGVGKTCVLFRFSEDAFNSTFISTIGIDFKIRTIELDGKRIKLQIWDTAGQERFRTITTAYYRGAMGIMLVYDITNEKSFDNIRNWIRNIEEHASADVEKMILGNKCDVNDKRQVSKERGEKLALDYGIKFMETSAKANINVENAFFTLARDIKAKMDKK
Procedure: Rab8a6–176(GppNHp) was serially diluted in a buffer containing 25 mM HEPES (pH 7.5), 150 mM NaCl, 1 mM MgCl2, 1 mM TCEP, 0.01% Tween 20 and 1 μM GppNHp, treated with 66 nM fluorescein-labelled peptides and incubated for 4 h at room temperature. Fluorescence polarization values (λex=470 nm, λem=525 nm) were determined at room temperature. Initial studies for alkyne macrocyclized peptides were performed as single measurements. Final affinity measurements of a subset of peptides were performed in triplicates. After correction for changes in fluorescence intensity upon binding, the fluorescence anisotoropy data were converted into fraction bound of the FITC-labelled peptide and fitted to a one-site binding model derived from the law of mass action using Kd as the only fitting parameter (for details, see Supplementary Methods)[63]. Nonlinear regression was performed in Prism 5.0 (Graphpad)[64]. […]
using a PD-10 desalting column Sephadex G-25 DNA Grade (GE Healthcare) with elution buffer consisting of 20 mM HEPES (pH 7.5), 50 mM NaCl, 1 mM TCEP. After removal of Mg2+ the protein was diluted to 80 - 100 µM before addition of ZnCl2 (500 µM) and (NH4)2SO4 (200 mM). After addition of alkaline phosphatase (5 U mg-1 Rab protein) the mixture was incubated for 16 h at 4°C. For nucleotide exchange, the mixture contained a 5-fold excess of GppNHp during alkaline phosphatase incubation. Afterwards, the mixture was desalted using a PD-10 desalting column Sephadex G-25 DNA Grade (GE Healthcare) with elution buffer consisting of 25 mM HEPES (pH 7.5) 150 mM NaCl, 1 mM TCEP, 1 mM MgCl2 and 1 µM GppNHp.
Fluorescence polarization assay for the determination of dissociation […]
Rab8a6-176 was serially diluted in a buffer containing 25 mM HEPES (pH 7.5), 150 mM NaCl, 1 mM MgCl2, 1 mM TCEP, 0.01% tween 20 and 1 µM GppNHp (assay buffer), treated with 66 nM fluorescein-labeled peptides and incubated for 4 h at room temperature. Binding assays were performed in 384-well, small volume, black flat-bottom, non-binding plates (Greiner). Fluorescence polarization values (λex = 470 nm, λem = 525 nm) were determined using a Safire II plate reader (Tecan) at room temperature. Initial studies for alkyne macrocyclized peptides were performed as single measurements. Final affinity measurements of a subset of peptides were performed in triplicates. After correction for changes in fluorescence intensity upon binding, the fluorescence anisotoropy data were converted into fraction bound (Supplementary equation 1) of the FITC- labeled peptide and fitted to a one-site binding model derived from the law of mass action using Kd as the only fitting parameter (Supplementary equation 2).4 In case of incomplete binding due to the limited solubility of Rab proteins, anisotropy top-values were extrapolated and constrained as indicated below. Non-linear regression was performed in Prism 5.0 […]
(Supplementary equation 1)
A: observed anisotropy; Afree: anisotropy of free fluorophore; Abound: anisotoropy of bound fluorophore; Q: change in fluorescence intensity between free and bound state […]
(Supplementary equation 2)
Kd: dissociation constant; LT: total concentration of labeled peptide; cRab: protein concentration Microscale Thermophoresis (MST)

[1] = On-resin ring-closing alkyne metathesis (RCAM), alpha-methyl-alpha-alkynyl residues at i,i+4, Mo alkylidyne complex 5 (2 mg/mL, 2 x 0.5 mL), Ar bubbling to remove 2-butyne; bicyclic entries (24-29) additionally closed by RCM (Grubbs I); conditions: the molecule shown is the open-chain precursor, toluene, 40.0 °C, 3.0 h

Increase in binding affinity compared with StRIP3 (Rab8a6-176(GppNHp); FP Kd, Rab8a6-176(GppNHp)): 2 fold
Rel. Kd (Kd [Peptide]/Kd [StRIP3]) (Rab8a6-176(GppNHp)): 0.40
Kd (Rab8a6-176(GppNHp)): 10.7 ± 0.5 µM
SMILES: CC(C)C[C@H](NC(=O)[C@H](CC(C)C)NC(=O)[C@H](Cc1c[nH]cn1)NC(=O)[C@H](Cc1ccc(O)cc1)NC(=O)[C@]1(C)CCCCC(Br)=C(Br)CCCC[C@](C)(NC(=O)[C@H](CCC(=O)O)NC(=O)[C@H](CC(=O)O)NC(=O)[C@H](CC(=O)O)NC(=O)COCCOCCNC(=S)Nc2ccc3c(c2)C(=O)OC32c3ccc(O)cc3Oc3cc(O)ccc32)C(=O)N[C@@H](CCC(=O)O)C(=O)N[C@@H](CCC(N)=O)C(=O)N[C@@H](Cc2ccccc2)C(=O)N1)C(=O)N[C@@H](CO)C(=O)N[C@@H](Cc1ccccc1)C(=O)N[C@@H](CC(N)=O)C(=O)N[C@@H](C)C(=O)N[C@H](C(N)=O)C(C)C [peptide 21]

SMILES: CC#CCCC[C@](C)(NC(=O)[C@H](Cc1ccccc1)NC(=O)[C@H](CCC(=O)NC(c1ccccc1)(c1ccccc1)c1ccccc1)NC(=O)[C@H](CCC(=O)OC(C)(C)C)NC(=O)[C@](C)(CCCC#CC)NC(=O)[C@H](CCC(=O)OC(C)(C)C)NC(=O)[C@H](CC(=O)OC(C)(C)C)NC(=O)[C@H](CC(=O)OC(C)(C)C)NC(=O)OCC1c2ccccc2-c2ccccc21)C(=O)N[C@@H](Cc1ccc(OC(C)(C)C)cc1)C(=O)N[C@@H](Cc1cn(C(c2ccccc2)(c2ccccc2)c2ccccc2)cn1)C(=O)N[C@@H](CC(C)C)C(=O)N[C@@H](CC(C)C)C(=O)N[C@@H](COC(C)(C)C)C(=O)N[C@@H](Cc1ccccc1)C(=O)N[C@@H](CC(=O)NC(c1ccccc1)(c1ccccc1)c1ccccc1)C(=O)N[C@@H](C)C(=O)N[C@H](C(N)=O)C(C)C
ring closure, overall yield ([1]; 21-membered ring): 0%

SMILES: CC#CCCCC[C@](C)(NC(=O)[C@H](Cc1ccccc1)NC(=O)[C@H](CCC(=O)NC(c1ccccc1)(c1ccccc1)c1ccccc1)NC(=O)[C@H](CCC(=O)OC(C)(C)C)NC(=O)[C@](C)(CCCC#CC)NC(=O)[C@H](CCC(=O)OC(C)(C)C)NC(=O)[C@H](CC(=O)OC(C)(C)C)NC(=O)[C@H](CC(=O)OC(C)(C)C)NC(=O)OCC1c2ccccc2-c2ccccc21)C(=O)N[C@@H](Cc1ccc(OC(C)(C)C)cc1)C(=O)N[C@@H](Cc1cn(C(c2ccccc2)(c2ccccc2)c2ccccc2)cn1)C(=O)N[C@@H](CC(C)C)C(=O)N[C@@H](CC(C)C)C(=O)N[C@@H](COC(C)(C)C)C(=O)N[C@@H](Cc1ccccc1)C(=O)N[C@@H](CC(=O)NC(c1ccccc1)(c1ccccc1)c1ccccc1)C(=O)N[C@@H](C)C(=O)N[C@H](C(N)=O)C(C)C
ring closure, overall yield ([1]; 22-membered ring): 12%

Rel. Kd (Kd [Peptide]/Kd [StRIP3]) (Rab8a6-176(GppNHp)): 0.42
SMILES: CC(C)C[C@H](NC(=O)[C@H](Cc1c[nH]cn1)NC(=O)[C@H](Cc1ccc(O)cc1)NC(=O)[C@]1(C)CCCCC#CCCC[C@](C)(NC(=O)[C@H](CCC(=O)O)NC(=O)[C@H](CC(=O)O)NC(=O)[C@H](CC(=O)O)NC(=O)COCCOCCNC(=S)Nc2ccc3c(c2)C(=O)OC32c3ccc(O)cc3Oc3cc(O)ccc32)C(=O)N[C@@H](CCC(=O)O)C(=O)N[C@@H](CCC(N)=O)C(=O)N[C@@H](Cc2ccccc2)C(=O)N1)C(=O)N[C@@]1(C)CCC/C=C\CCC[C@@](C)(C(=O)N[C@H](C(N)=O)C(C)C)NC(=O)[C@H](CC(N)=O)NC(=O)[C@H](Cc2ccccc2)NC(=O)[C@H](CO)NC1=O [compound 28]

Rel. Kd (Kd [Peptide]/Kd [StRIP3]) (Rab8a6-176(GppNHp)): 1.00
Kd (Rab8a6-176(GppNHp)): 20.7 ± 0.7 µM
SMILES: CC(C)C[C@H](NC(=O)[C@H](CC(C)C)NC(=O)[C@H](Cc1c[nH]cn1)NC(=O)[C@H](Cc1ccc(O)cc1)NC(=O)[C@]1(C)CCC/C=C\CCC[C@](C)(NC(=O)[C@H](CCC(=O)O)NC(=O)[C@H](CC(=O)O)NC(=O)[C@H](CC(=O)O)NC(=O)COCCOCCNC(=S)Nc2ccc3c(c2)C(=O)OC32c3ccc(O)cc3Oc3cc(O)ccc32)C(=O)N[C@@H](CCC(=O)O)C(=O)N[C@@H](CCC(N)=O)C(=O)N[C@@H](Cc2ccccc2)C(=O)N1)C(=O)N[C@@H](CO)C(=O)N[C@@H](Cc1ccccc1)C(=O)N[C@@H](CC(N)=O)C(=O)N[C@@H](C)C(=O)N[C@H](C(N)=O)C(C)C [StRIP3] ({FITC-AEEA}-DDE[S5]EQF[S5]YHLLSFNAV-NH2; staple (Z) 4-8; C-terminus assumed)

SMILES: CC#CCCCC[C@](C)(NC(=O)[C@H](Cc1ccccc1)NC(=O)[C@H](CCC(=O)NC(c1ccccc1)(c1ccccc1)c1ccccc1)NC(=O)[C@H](CCC(=O)OC(C)(C)C)NC(=O)[C@](C)(CCCCC#CC)NC(=O)[C@H](CCC(=O)OC(C)(C)C)NC(=O)[C@H](CC(=O)OC(C)(C)C)NC(=O)[C@H](CC(=O)OC(C)(C)C)NC(=O)OCC1c2ccccc2-c2ccccc21)C(=O)N[C@@H](Cc1ccc(OC(C)(C)C)cc1)C(=O)N[C@@H](Cc1cn(C(c2ccccc2)(c2ccccc2)c2ccccc2)cn1)C(=O)N[C@@H](CC(C)C)C(=O)N[C@@H](CC(C)C)C(=O)N[C@@H](COC(C)(C)C)C(=O)N[C@@H](Cc1ccccc1)C(=O)N[C@@H](CC(=O)NC(c1ccccc1)(c1ccccc1)c1ccccc1)C(=O)N[C@@H](C)C(=O)N[C@H](C(N)=O)C(C)C
ring closure, overall yield ([1]; 23-membered ring): 16%

SMILES: CC#CCCCC[C@](C)(NC(=O)[C@H](CCC(=O)OC(C)(C)C)NC(=O)[C@H](CC(=O)OC(C)(C)C)NC(=O)[C@H](CC(=O)OC(C)(C)C)NC(=O)OCC1c2ccccc2-c2ccccc21)C(=O)N[C@@H](CCC(=O)OC(C)(C)C)C(=O)N[C@@H](CCC(=O)NC(c1ccccc1)(c1ccccc1)c1ccccc1)C(=O)N[C@@H](Cc1ccccc1)C(=O)N[C@@](C)(CCCC#CC)C(=O)N[C@@H](Cc1ccc(OC(C)(C)C)cc1)C(=O)N[C@@H](Cc1cn(C(c2ccccc2)(c2ccccc2)c2ccccc2)cn1)C(=O)N[C@@H](CC(C)C)C(=O)N[C@@H](CC(C)C)C(=O)N[C@@H](COC(C)(C)C)C(=O)N[C@@H](Cc1ccccc1)C(=O)N[C@@H](CC(=O)NC(c1ccccc1)(c1ccccc1)c1ccccc1)C(=O)N[C@@H](C)C(=O)N[C@H](C(N)=O)C(C)C
ring closure, overall yield ([1]; 22-membered ring): 23%
